Results from ChEMBL document CHEMBL6120933, “Improving Anti-HIV activity and pharmacokinetics of enfuvirtide (T20) by modification with oligomannose” (Eur J Med Chem, 2024).

Test system: Human immunodeficiency virus 1
Assay: Antiviral activity against HIV-1 pseudovirus infected in HEK293T cell transfected with DC-SIGN and luciferase assessed as inhibition of viral entry into cells at 500 uM preincubated with cells for 2 hrs followed by virus addition and measured after 4 hrs by p24 ELISA relative to control
Format: functional
Conditions: Human immunodeficiency virus 1, HEK-293T, time 6 hrs

For `[N-]=[N+]=NCCO[C@H]1O[C@H](CO[C@H]2O[C@H](CO)[C@@H](O)[C@H](O)[C@@H]2O[C@H]2O[C@H](CO)[C@@H](O)[C@H](O)[C@@H]2O)[C@@H](O)[C@H](O[C@H]2O[C@H](CO)[C@@H](O)[C@H](O)[C@@H]2O[C@H]2O[C@H](CO)[C@@H](O)[C@H](O)[C@@H]2O)[C@@H]1O`, the inhibition at 500 µM was 18%.
